Experimental data as given in patent US10196353B2, “Chemical compounds” (GlaxoSmithKline Intellectual Property (No. 2) Limited, priority 2012, dated 2019).

Key:
[1] = biological target: androgen receptor (MBP-hAR-LBD, rat androgen ligand binding domain) (Rattus norvegicus (Rat), UniProt P15207); assay: Androgen receptor fluorescence polarization assay; details: read-out: % Max
Excerpt: • The following abbreviations and sources of materials are used • Fluormone PL Red—a commercially available PR fluoroprobe (Invitrogen, P2964) • Fluormone GS Red—a commercially available GR fluoroprobe (PanVera Corp, Product No P2894) • Fluormone AL Red—a commercially available AR fluoroprobe (Invitrogen, PV4294,) • MBP-hPR-LBD—maltose binding protein Purified human progesterone ligand binding domain (made in house) • GR—purified human glucocorticoid receptor (PanVera Corp, Product No P2812) • MBP-hAR-LBD—maltose binding protein Purified rat androgen ligand binding domain (made in house) • PR Screening Buffer—100 mM potassium phosphate (pH 7.4), 100 μG/ml bovine gamma globulin, 15% ethylene glycol, 10% glycerol with 2 mM CHAPS, 1 mM DTT added fresh and 4% DMSO added fresh (final of 5% DMSO in assay with 1% concentration coming from compound dispense) • AR Screening Buffer—50 mM Tris pH 7.5, 100 mM Ammonium Sulfate, 20% glycerol, 3% xylitol with 5 mM Chaps, 2 mM DTT added fresh and 4% DMSO added fresh (final of 5% DMSO in assay with 1% concentration coming from compound dispense) • GR Screening Buffer—100 mM potassium phosphate (pH 7.4), 200 mM Na2MoO2, 1 mM EDTA, 20% DMSO (PanVera Corp Product No P2814) with GR stabilizing peptide (100 μM) (PanVera Corp Product No P2815) • DTT—dithiothreitol (PanVera Corp Product No P2325) • Discovery Analyst—is an FP reader • DMSO—dimethylsulphoxide Progesterone Receptor Fluorescence Polarization Assay:
The androgen receptor fluorescence polarization assay is used to investigate the interaction of the compounds with the androgen receptor.
Compounds are added to the 384 well black low-volume plates to a final volume of 0.1 μL. DTT and DMSO are added to the chilled assay buffer just before beginning assay. Sufficient Fluormone AL Red and AR-LBD are defrosted on ice and added to the chilled buffer in a glass tube to give a final concentration of 1 nM and 100 nM, (for current batch) respectively. A volume of 10 μL of the assay mix is added to compound plates with a multidrop. […] The plates are counted in a Discovery Analyst with suitable 535 nm excitation and 590 nm emission interference filters (Dichroic 561 nM). […] Test compounds are dissolved and diluted in DMSO. Compounds are assayed in singlicate, a four parameter curve fit of the following form being applied
[formula] where a is the minimum, b is the Hill slope, c is the IC50 and d is the maximum.
Data is presented as the mean pIC50 with the standard error of the mean of n experiments.

[2] = tested on: castrated male Sprague-Dawley rats; assay: Castrated male rat model (ORX rat); assay type: in vivo; details: for prostate sparing: defined as at least a 2:1 ratio of levator ani ED50 to prostate ED50; for levator ani hypertrophy: favorable = 30% or greater increase in levator ani weight vs vehicle-treated castrates, dosed orally at up to 10 mg/kg/day
Excerpt: The activity of the compounds of the present invention as modulators of the androgen receptor was investigated using a castrated male rat model (ORX) as described in C. D. Kockakian, Pharmac. Therap. B1(2), 149-177 (1975); C. Tobin and Y. Joubert, Developmental Biology 146, 131-138 (1991); J. Antonio, J. D. Wilson and F. W. George, J Appl. Physiol. 87(6) 2016-2019 (1999)) the disclosures of which herein are included by reference.
Androgens have been identified as playing important roles in the maintenance and growth of many tissues in both animals and humans. Muscles, like the levator ani and bulbocavernosus, and sexual accessory organs, such as the prostate glands and seminal vesicles have high expression levels of the androgen receptor and are known to respond quickly to exogenous androgen addition or androgen deprivation through testicular ablation. Castration produces dramatic atrophy of muscle and sexual accessory organs; whereas the administration of exogenous androgens to the castrated animal results in effective hypertrophy of these muscles and sexual accessory organs. Although the levator ani muscle, also known as the dorsal bulbocavernosus, is not ‘true skeletal muscle’ and definitely sex-linked, it is reasonable to use this muscle to screen muscle anabolic activities of test compounds because of its androgen responsiveness and simplicity of removal.
Male Sprague-Dawley rats weighing 160-180 grams were used in the assay. The rats were singly caged upon receiving and throughout the study. Bilateral orchidectomies were performed in sterilized surgical conditions under isoflurane anesthesia. An anteroposterior incision was made in the scrotum. The testicles were exteriorized and the spermatic artery and vas deferens were ligated with 4.0 silk 0.5 cm proximal to the ligation site. The testicles then were removed by a surgical scissors distal to the ligation sites. The tissue stumps were returned to the scrotum, the scrotum and overlying skin were closed by a surgical stapler. The Sham-ORX rats underwent all procedures except ligation and scissors cutting. The rats were assigned randomly into study groups 7-10 days post surgery based on the body weight.
Dihydrotestosterone (DHT) and the standard SARM, S-22, (J. Pharma. Exper. Thera. Vol 315, p. 230) were used as a positive control (1-10 mg/kg s.c. for DHT and 0.1 to 3 mg/kg p.o. for S-22). Compounds of the current invention were administered subcutaneously or orally for 4-28 days. Alternatively, some compounds of the current invention were administered subcutaneously or orally for 7-49 days. The rats were weighed daily and doses were adjusted accordingly. The general well being of the animal was monitored throughout the course of the study.
At the end of the study, the rats were euthanized in a CO2 chamber. The ventral prostate glands (VP), seminal vesicles (SV), levator ani muscle (LA) and bulbocavernosus (BC) were carefully dissected. The tissues were blotted dry; the weights were recorded, and then saved for histological and molecular analysis. The VP and SV weights serve as androgenic indicators and LA and BC as anabolic indicators. The ratio of anabolic to androgenic activities was used to evaluate the test compounds. Serum luteinizing hormone (LH), follicle stimulating hormone (FSH) and other potential serum markers of anabolic activities were also analyzed.
The compounds shown in Examples 9, 20, 26, 27, 33, 51, 52, and 53 were tested in the castrated male rate model essentially as described above. Test compounds were employed in free or salt form. […] Prostate sparing was defined as at least a 2:1 ratio of levator ani ED50 to prostate ED50. The ED50 is defined as 50% of the maximum response above the vehicle treated castrate level. For shorter term studies (4-7 days), the maximum response is defined as the maximum response from positive control (DHT or standard SARM, S-22) treatment. For the longer term studies (7-49 days), the ED50 is defined as 50% of the eugonadal state. […]

Chain of androgen receptor (MBP-hAR-LBD, rat androgen ligand binding domain) (P15207 651-882): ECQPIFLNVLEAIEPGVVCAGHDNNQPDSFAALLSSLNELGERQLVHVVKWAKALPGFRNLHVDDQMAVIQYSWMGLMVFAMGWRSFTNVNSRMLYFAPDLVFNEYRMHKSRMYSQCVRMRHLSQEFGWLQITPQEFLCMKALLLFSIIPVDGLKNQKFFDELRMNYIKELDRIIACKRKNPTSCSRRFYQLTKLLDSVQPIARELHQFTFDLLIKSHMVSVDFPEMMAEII

| SMILES | Emax [1] [%] | prostate sparing [2] | levator ani hypertrophy [2] |
| --- | --- | --- | --- |
| CCC(C(=O)OC)n1c(C)cc2c(C(F)(F)F)c(C#N)ccc21 (stereo not shown) [Example 2, Methyl 2-[5-cyano-2-methyl-4-(trifluoromethyl)-1H-indol-1-yl]butanoate] | 72 |  |  |
| Cc1cc2c(C(F)(F)F)c(C#N)ccc2n1C(C)CO (stereo not shown) [Example 7, 1-(1-Hydroxypropan-2-yl)-2-methyl-4-(trifluoromethyl)-1H-indole-5-carbonitrile] | 100 |  |  |
| Cc1cc2c(C(F)(F)F)c(C#N)ccc2n1C(C)CS(C)(=O)=O (stereo not shown) [Example 9, 2-Methyl-1-(1-(methylsulfonyl)propan-2-yl)-4-(trifluoromethyl)-1H-indole-5-carbonitrile] |  | spared the prostate | favorable levator ani hypertrophy |
| CCCc1cc2c(C(F)(F)F)c(C#N)ccc2n1CC(C)(C)O [Example 12, 1-(2-Hydroxy-2-methylpropyl)-2-propyl-4-(trifluoromethyl)-1H-indole-5-carbonitrile] | 90 |  |  |
| CSCC(C)n1c(C(F)F)cc2c(C#N)c(C#N)ccc21 (stereo not shown) [Example 17, 2-(Difluoromethyl)-1-(1-(methylthio)propan-2-yl)-1H-indole-4,5-dicarbonitrile] | 99 |  |  |
| C[C@H](n1ccc2c(C(F)(F)F)c(C#N)ccc21)C(C)(C)O [Example 21, (S)-1-(3-Hydroxy-3-methylbutan-2-yl)-4-(trifluoromethyl)-1H-indole-5-carbonitrile] | 100 |  |  |
| C[C@@H](n1ccc2c(C(F)(F)F)c(C#N)ccc21)C(C)(C)O [Example 22, (R)-1-(3-Hydroxy-3-methylbutan-2-yl)-4-(trifluoromethyl)-1H-indole-5-carbonitrile] | 100 |  |  |
| CC(CS(C)(=O)=O)n1ccc2c(C(F)(F)F)c(C#N)ccc21 (stereo not shown) [Example 26, 1-(1-(Methylsulfonyl)propan-2-yl)-4-(trifluoromethyl)-1H-indole-5-carbonitrile] |  | spared the prostate | favorable levator ani hypertrophy |
| C[C@H](CS(C)(=O)=O)n1ccc2c(C(F)(F)F)c(C#N)ccc21 [Example 27, (R)-1-(1-(Methylsulfonyl)propan-2-yl)-4-(trifluoromethyl)-1H-indole-5-carbonitrile] | 91 | spared the prostate | favorable levator ani hypertrophy |
| C[C@H](n1ccc2c(Cl)c(C#N)ccc21)C(C)(C)O [Example 32, (S)-4-Chloro-1-(3-hydroxy-3-methylbutan-2-yl)-1H-indole-5-carbonitrile] | 78 |  |  |
| CC(C)(O)C(C)(C)n1ccc2c(C#N)c(C#N)ccc21 [Example 43, 1-(3-Hydroxy-2,3-dimethylbutan-2-yl)-1H-indole-4,5-dicarbonitrile] | 105 |  |  |
| CC[C@H](c1cncc(C#N)c1)n1ccc2c(C#N)c(C#N)ccc21 [Example 51, (R)-1-(1-(5-Cyanopyridin-3-yl)propyl)-1H-indole-4,5-dicarbonitrile] |  | spared the prostate | favorable levator ani hypertrophy |
| C[C@@H](n1ccc2c(Cl)c(C#N)ccc21)[C@](C)(O)C(F)(F)F [Example 52, 4-Chloro-1-((2R,3S)-4,4,4-trifluoro-3-hydroxy-3-methylbutan-2-yl)-1H-indole-5-carbonitrile] | 97 | spared the prostate | favorable levator ani hypertrophy |
| C[C@@H](n1ccc2c(C(F)(F)F)c(C#N)ccc21)[C@](C)(O)C(F)(F)F [Example 53, 1-((2R,3S)-4,4,4-Trifluoro-3-hydroxy-3-methylbutan-2-yl)-4-(trifluoromethyl)-1H-indole-5-carbonitrile] |  | spared the prostate | favorable levator ani hypertrophy |
